PubChem BioAssay AID1963872 (Molecular Pharmacology Branch, DTP, NCI, 2024)
pIC50: −log10 of the molar value.

System: KRAS patient-derived spheroids with HUVEC/MSC, viability
Assay: Anticancer human tumor 519858-162-T-J1-PDC patient-derived colon adenocarcinoma cell line growth inhibition [KRAS2]
Settings: for pIC50: curve of first compound; for viability, T/C: stronger effect = lower value; active means viability on the fitted dose curve at most 10% of control; inactive means the rest
How it was run: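 KRAS-mutant tumor cells were grown as spheroids with HUVEC endothelial cells and human MSCs as stroma. Targeted agents were tested alone and with KRAS pathway inhibitors. Doses started at or near clinical Cmax, or 10 microM, descending half-log.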

[1] = second compound 0.0316 µM, first compound 0.0316 µM
[2] = second compound 0.0316 µM, first compound 0.1 µM
[3] = second compound 0.0316 µM, first compound 0.316 µM
[4] = second compound 0.0316 µM, first compound 1 µM
[5] = second compound 0.0316 µM, first compound 3.16 µM
[6] = second compound 0.0316 µM, first compound 10 µM
[7] = second compound 0.1 µM, first compound 0.0316 µM
[8] = second compound 0.1 µM, first compound 0.1 µM
[9] = second compound 0.1 µM, first compound 0.316 µM
[10] = second compound 0.1 µM, first compound 1 µM
[11] = second compound 0.1 µM, first compound 3.16 µM
[12] = second compound 0.1 µM, first compound 10 µM
[13] = second compound 0.316 µM, first compound 0.0316 µM
[14] = second compound 0.316 µM, first compound 0.1 µM
[15] = second compound 0.316 µM, first compound 0.316 µM
[16] = second compound 0.316 µM, first compound 1 µM
[17] = second compound 0.316 µM, first compound 3.16 µM
[18] = second compound 0.316 µM, first compound 10 µM
[19] = second compound 1 µM, first compound 0.0316 µM
[20] = second compound 1 µM, first compound 0.1 µM
[21] = second compound 1 µM, first compound 0.316 µM
[22] = second compound 1 µM, first compound 1 µM
[23] = second compound 1 µM, first compound 3.16 µM
[24] = second compound 1 µM, first compound 10 µM
[25] = second compound 3.16 µM, first compound 0.0316 µM
[26] = second compound 3.16 µM, first compound 0.1 µM
[27] = second compound 3.16 µM, first compound 0.316 µM
[28] = second compound 3.16 µM, first compound 1 µM
[29] = second compound 3.16 µM, first compound 3.16 µM
[30] = second compound 3.16 µM, first compound 10 µM
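Further: compound exposure lasted seven days before readout.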
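Wherever viability, T/C is given: 100% = DMSO vehicle control viability.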

CCNC(=O)CC1N=C(c2ccc(Cl)cc2)c2cc(OC)ccc2-n2c(C)nnc21 (stereo not given) + C=CC(=O)N1CCN(c2nc(OCC3CCCN3C)nc3c2CCN(c2cccc4cccc(C)c24)C3)CC1CC#N
5.76: pIC50 (second compound 0.1 µM)
5.84: pIC50 (second compound 1 µM)
6.70: pIC50 (second compound 3.16 µM)
5.88: pIC50 (second compound 0.316 µM)
inactive: viability, T/C [1] 90.5% | viability, T/C [2] 76.3% | viability, T/C [3] 92.1% | viability, T/C [4] 57.6% | viability, T/C [5] 42.6% | viability, T/C [6] 31.6% | viability, T/C [7] 85.5% | viability, T/C [8] 93.8% | viability, T/C [9] 79.7% | viability, T/C [10] 59.2% | viability, T/C [11] 40.4% | viability, T/C [12] 27.2% | viability, T/C [13] 101% | viability, T/C [14] 88.3% | viability, T/C [15] 66.4% | viability, T/C [16] 54.1% | viability, T/C [17] 40.4% | viability, T/C [18] 22.9% | viability, T/C [19] 89.3% | viability, T/C [20] 74.6% | viability, T/C [21] 70.4% | viability, T/C [22] 58.2% | viability, T/C [23] 35.8% | viability, T/C [24] 20.6% | viability, T/C [25] 69.9% | viability, T/C [26] 55.2% | viability, T/C [27] 46.9% | viability, T/C [28] 33.2% | viability, T/C [29] 29.6% | viability, T/C [30] 18.4%
5.82: pIC50 (second compound 0.0316 µM)

CC(=O)OC12COC1CC(O)C1(C)C(=O)C(O)C3=C(C)C(OC(=O)C(O)C(NC(=O)OC(C)(C)C)c4ccccc4)CC(O)(C(OC(=O)c4ccccc4)C21)C3(C)C (stereo not given) + CNCc1ccccc1-c1csc(C(C)Nc2nc(C)nc3cc(OC)c(OC)cc23)c1
7.09: pIC50 (second compound 3.16 µM)
> 8.00: pIC50 (second compound 10 µM)
inactive: viability, T/C (second compound 0.1 µM, first compound 0.01 µM) 96.1% | viability, T/C [7] 75% | viability, T/C [8] 77% | viability, T/C [9] 74.6% | viability, T/C [10] 78% | viability, T/C [11] 62.5% | viability, T/C (second compound 0.316 µM, first compound 0.01 µM) 76.2% | viability, T/C [13] 66.5% | viability, T/C [14] 85.8% | viability, T/C [15] 71.9% | viability, T/C [16] 63.6% | viability, T/C [17] 73.9% | viability, T/C (second compound 1 µM, first compound 0.01 µM) 80.8% | viability, T/C [19] 129% | viability, T/C [20] 94.9% | viability, T/C [21] 106% | viability, T/C [22] 86.2% | viability, T/C [23] 68.5% | viability, T/C (second compound 3.16 µM, first compound 0.01 µM) 117% | viability, T/C [25] 74.8% | viability, T/C [26] 38.7% | viability, T/C [27] 38% | viability, T/C [28] 21.1% | viability, T/C [29] 80.8% | viability, T/C (second compound 10 µM, first compound 0.01 µM) 43.4% | viability, T/C (second compound 10 µM, first compound 0.0316 µM) 1.29% | viability, T/C (second compound 10 µM, first compound 0.1 µM) 10.6% | viability, T/C (second compound 10 µM, first compound 0.316 µM) 8.61% | viability, T/C (second compound 10 µM, first compound 1 µM) 86.4% | viability, T/C (second compound 10 µM, first compound 3.16 µM) 2.58%
< 5.50: pIC50 (second compound 0.1 µM) | pIC50 (second compound 0.316 µM) | pIC50 (second compound 1 µM)

Cn1nccc1Nc1nccc(-c2cc3c(s2)C(C)(C)N(CCN2CCOCC2)C3=O)n1 + C=CC(=O)N1CCN(c2nc(OCC3CCCN3C)nc3c2CCN(c2cccc4cccc(C)c24)C3)CC1CC#N
5.52: pIC50 (second compound 0.1 µM)
5.77: pIC50 (second compound 0.316 µM)
> 7.50: pIC50 (second compound 3.16 µM)
6.16: pIC50 (second compound 1 µM)
inactive: viability, T/C [1] 78.1% | viability, T/C [2] 75.3% | viability, T/C [3] 82.8% | viability, T/C [4] 68.4% | viability, T/C [5] 56.6% | viability, T/C [6] 28.1% | viability, T/C [7] 76.3% | viability, T/C [8] 87.3% | viability, T/C [9] 94.7% | viability, T/C [10] 60.1% | viability, T/C [11] 53.7% | viability, T/C [12] 25.3% | viability, T/C [13] 77.7% | viability, T/C [14] 74.7% | viability, T/C [15] 72% | viability, T/C [16] 53.3% | viability, T/C [17] 44.8% | viability, T/C [18] 32.8% | viability, T/C [19] 71.6% | viability, T/C [20] 57.1% | viability, T/C [21] 54% | viability, T/C [22] 53% | viability, T/C [23] 36.7% | viability, T/C [24] 27.1% | viability, T/C [25] 47.6% | viability, T/C [26] 54.6% | viability, T/C [27] 39.8% | viability, T/C [28] 30% | viability, T/C [29] 41.5% | viability, T/C [30] 17.6%
5.39: pIC50 (second compound 0.0316 µM)
